“Also recorded” adds a separate entry of the source.

Type in all cases: in vivo, mouse
For data set [1], the system named is ADR-induced nephropathy in Balb/c mice. Briefly: Adriamycin-induced kidney damage, dose finding experiment, 35 days. The settings on record: for Albuminuria / proteinuria / Body weight loss: 5 weeks after ADR; for TOTAL CHOL (blood) / TRIGLYCERIDES (blood): 35 days after ADR injection. The procedure: First, we performed a preliminary experiment to explore the best dose of compounds to be used and to determine if other experimental variables needed to be adjusted. In this experiment, 30 mice received a single dose of Adriamycin (Sigma-Aldrich, 12 mg/Kg, via tail vein injection) and then were randomly separated into 6 groups of 5 mice each. Another 5 mice were injected with 0.9% NaCl by the same route and were used as a no-kidney injury baseline group. Starting 24 h after ADR injection, vehicle, or different doses of compounds, were given once daily by oral gavage for 35 days. The doses of compounds tested were the following: LXR agonist (Cpd C, 10 mg/Kg); ABCA1 inducers Cpd A and Cpd G (30 mg/Kg and 100 mg/Kg). Body weight measurements and spot urine collection was done once a week. Animals were sacrificed 35 days after ADR injection (FIG. 1).
(§1) Spot urine samples were collected for all mice at baseline and time of sacrifice. Urinary albumin and creatinine were determined using an albumin ELISA kit (Bethyl laboratories) and a colorimetric assay for creatinine determination (Stanbio). Albuminuria was calculated and expressed as μg of albumin divided by mg of creatinine. For diabetic mouse model, weight and glycaemia were measured on a bi-weekly basis.

Another data set concerns ADR-injected Balb/c mice. Briefly: Toxicity by serology in ADR-injected mice (WBC, hemoglobin, hematocrit, transaminases). The conditions noted are these: for ALT / HCT / HEMOGLOBIN / WBC: 35-day treatment, ADR-injected; for liver toxicity and blood dyscrasias (serology): all treated animals. The source says: We next investigated compounds C, A and G toxicity by serology. More specifically, we determined hematocrit, hemoglobin white cell blood count and liver transaminases ALT and AST of all treated animals to determine if liver toxicity and blood dyscrasias were associated with the compounds.

The test system of data set [2] is ADR-induced nephropathy in Balb/c mice. Briefly: Adriamycin-induced kidney damage, second experiment, 28 days. The conditions noted are these: for Albuminuria / Body weight loss: 4 weeks after ADR; for TOTAL CHOL (blood) / TRIGLYCERIDES (blood): 28 days after ADR injection. The procedure:
A second experiment was repeated to confirm the improvement of renal function attained with the doses of Cpd A and G in the first experiment. Briefly, 30 female Balb/c mice of 8 weeks age were injected with 12 mg/Kg of ADR by via tail vein and the mice were randomly distributed into 5 groups of 6 animals each. Animals were given vehicle or compounds by oral gavage once daily for 28 days starting one day after ADR injection. The following doses of compounds were tested: Cpd C, 10 mg/Kg/day; Cpd A, 30 mg/Kg/day and Cpd G, 30 mg/Kg/day and 100 mg/Kg/day. A group of 5 animals that received saline solution via tail vein injection and were treated with vehicle were used as healthy baseline control. Body weight measurements and spot urine collection was done once a week. Animals were sacrificed 28 days after ADR injection (FIG. 2).
as §1
At time of sacrifice blood was collected in heparinized tubes and mice were perfused via left ventricle perfusion with isotonic saline solution. Kidney cortex was carefully excised and further sectioned for the fallowing analysis: determination of podocyte number, lipid droplet staining, electron microscopy (EM), renal lipids content assays, PAS& HE staining for pathological evaluation.
Lipid droplet staining Filtered Oil-Red O-Isopropanol solution (Electron Microscopy Science, PA) was diluted with water (6:4). 4 μm kidney sections were incubated with 100 μl freshly prepared Oil-Red O solution (ORO) for 15 minutes and counterstained with Hematoxylin Harris Hg Free (VWR, PA) to detect lipid deposition. Glomeruli staining was evaluated using a light microscope (Olympus BX 41, Tokyo, Japan).
Renal lipids species assays. Kidney cortex sections were snap frozen and utilized for lipid extraction and cholesterol content determination. The tissue was homogenized in 2 mM potassium phosphate buffer in a glass douncer on ice. Lipids in 100 μl homogenate (˜5-10 mg tissue) were extracted with 1 ml hexane:isopropanol (3:2) for two sequential 30-minute extractions. The solvent containing lipids was then dried in Nitrogen atmosphere. Lipids were then reconstituted using isopropanol: NP-40 (9:1) and cholesterol content was quantified using the Amplex red cholesterol assay kit (Invitrogen) according to the manufacturers protocol. Triglycerides in lipid extracts were assayed with a colorimetric kit according to manufacturer's instructions (Cayman). Total cholesterol and cholesterol esters were assayed using an enzymatic fluorometric method. For total cholesterol renal lipid extracts were diluted in assay buffer (100 mM potassium phosphate, 50 mM NaCl, 5 mM cholic acid, 0.1% […], pH 7.4) and incubated with same buffer supplemented with a final concentration of 1 U/ml cholesterol oxidase, 1 U/ml cholesterol esterase, 1 U/ml horseradish peroxidase, and 75 μM Amplex Red. The reactions were incubated at 37° C. for 30 min in a black opaque 96 well plate (Greiner) and fluorescence was measured in a microplate reader (Spectramax i3X, Molecular Devices) using 530 nm excitation and 580 emission.
Cholesterol esters were assayed using a direct method described by Mizoguchi et al (Mizoguchi, 2004). Briefly 150 μl of FC decomposition reagent (45 U/ml bovine catalase and 1 U/ml cholesterol oxidase, in assay buffer described above) was added to 25 μl of sample containing up to 1 mM total cholesterol. Free cholesterol was allowed to decompose overnight at 37° C. and then 75 μl of 4× cholesterol ester detection reagent (1 U/ml cholesterol oxidase, 4 U/ml cholesterol esterase, 24 U/ml horseradish peroxidase, 300 μM Amplex Red) was added. […]

Setting [3] is: 30 mg/Kg once daily oral gavage.
[4] abbreviates: 100 mg/Kg once daily oral gavage.

Regarding `O=C(N[C@@H]1CCCC[C@H]1O)c1ccc(OCC(F)(F)F)c(-c2ccc(Cl)c(Cl)c2)n1` [Cpd A, 6-(3,4-Dichlorophenyl)-N-[(1R,2R)-2-hydroxycyclohexyl]-5-(2,2,2-trifluoroethoxy)pyridine-2-carboxamide], in data set [1] (setting [3]), the Albuminuria / proteinuria entry is “attenuated; also recorded: reduced” and the Body weight loss entry is on record as “partially attenuated; also recorded: prevented”. Also, in data set [1] (30 mg/Kg), the “TOTAL CHOL (blood)” value was found to be 86.3 ± 8.8 mg/dL and the TRIGLYCERIDES (blood) was 57.6 ± 15.5 mg/dL. In data set [1] (100 mg/Kg), the “TOTAL CHOL (blood)” value is on record as 226.7 ± 173.4 mg/dL and the TRIGLYCERIDES (blood) is 47.3 ± 7.5 mg/dL. For the same compound, in the data set on ADR-injected Balb/c mice (30 mg/Kg), the ALT was 365.3 ± 181.2 U/L, the HCT stood at 51.8 ± 3.3%, the HEMOGLOBIN was found to be 13.9 ± 1.1 g/dL and the WBC is 4.6 ± 1.3 ×10^∧3 cells/ul. Moreover, the “liver toxicity and blood dyscrasias (serology)” value in the data set on ADR-injected Balb/c mice is reported as “No apparent signs of such toxicities”. For the same compound, in the data set on ADR-injected Balb/c mice (first ALT line (r15), 30 mg/Kg), the ALT came to 339.3 ± 274.8 U/L. Moreover, in data set [2] (30 mg/Kg once daily), the Albuminuria entry is “significantly reduce; also recorded: reduced” and the Body weight loss result is “significantly reduce; also recorded: reduced”. In data set [2] (30 mg/Kg), the “TOTAL CHOL (blood)” value turned out to be 104.0 ± 31.6 mg/dL and the TRIGLYCERIDES (blood) is 107 ± 23.9 mg/dL.
Turning to `O=C(N[C@@H]1CCCC[C@H]1O)c1cnc(OCC(F)(F)F)c(-c2ccc(Cl)c(Cl)c2)c1` [Cpd G, 5-(3,4-dichloro-phenyl)-N-((1R,2R)-2-hydroxy-cyclohexyl)-6-(2,2,2-trifluoro-ethoxy)-nicotinamide], in data set [1] (30 mg/Kg), the “TOTAL CHOL (blood)” value was determined as 136.3 ± 38.9 mg/dL and the TRIGLYCERIDES (blood) was 51 ± 16.8 mg/dL. Moreover, in data set [1] (setting [4]), the Albuminuria / proteinuria entry was “attenuated; also recorded: reduced” and the Body weight loss result is reported as “partially attenuated; also recorded: prevented”. Also, in data set [1] (100 mg/Kg), the “TOTAL CHOL (blood)” value was determined as 109.7 ± 11.0 mg/dL and the TRIGLYCERIDES (blood) worked out at 62 ± 16.5 mg/dL. Moreover, in the data set on ADR-injected Balb/c mice (30 mg/Kg), the ALT is reported as 323.4 ± 87.1 U/L, the HCT amounted to 49.5 ± 4.4%, the HEMOGLOBIN is 12.9 ± 1.0 g/dL and the WBC is reported as 6.3 ± 1.2 ×10^∧3 cells/ul. Also, in the data set on ADR-injected Balb/c mice (100 mg/Kg), the ALT is on record as 212.4 ± 91.1 U/L, the HCT worked out at 49.6 ± 2.3%, the HEMOGLOBIN is 13.1 ± 0.6 g/dL and the WBC is reported as 4.7 ± 1.6 ×10^∧3 cells/ul. The “liver toxicity and blood dyscrasias (serology)” value in the data set on ADR-injected Balb/c mice was “No apparent signs of such toxicities”. In the data set with ADR-injected Balb/c mice (first ALT line (r15), 30 mg/Kg), this compound registered an ALT of 181.6 ± 69.0 U/L. The compound also yielded an ALT in the data set with ADR-injected Balb/c mice (first ALT line (r15), 100 mg/Kg) of 191.4 ± 79.9 U/L. Also, in data set [2] (30 mg/Kg), the “TOTAL CHOL (blood)” value stood at 112.0 ± 13.6 mg/dL and the TRIGLYCERIDES (blood) is 120 ± 18.8 mg/dL. In data set [2] (100 mg/Kg once daily), the Albuminuria entry is given as “significantly reduce; also recorded: reduced” and the Body weight loss result is recorded as “significantly reduce; also recorded: reduced”. In addition, the “deposition of lipid droplets in the kidneys (Oil Red O staining)” value in data set [2] (100 mg/Kg, 28 days) is listed as “significantly reduced”. In addition, in data set [2] (100 mg/Kg), the “TOTAL CHOL (blood)” value worked out at 101.1 ± 12.8 mg/dL and the TRIGLYCERIDES (blood) came to 121 ± 19.3 mg/dL. Also, in data set [2] (100 mg/Kg/day, 4 weeks), the “global glomerular sclerosis (blind pathological study of kidney cortex)” value is reported as “reduction”, the interstitial inflammation result is listed as “reduction”, the podocyte hyperplasia result is “reduction” and the podocyte hypertrophy entry is listed as “reduction”. In addition, in data set [2] (100 mg/Kg/day, 4 weeks), the segmental glomerular sclerosis entry was “reduction” and the tubular microcysts entry is “reduction”. Moreover, in data set [2] (28 days, normalized to total protein), the “esterified cholesterol content in kidney cortex” value is “reduces accumulation of esterified cholesterol; also recorded: significantly reduced”. In addition, the physical appearance result in data set [2] (optimal dose (100 mg/Kg), 3rd and 4th week of treatment) is listed as “better physical appearance”.
For the compound `Cc1oc(-c2cccc(C(F)(F)F)c2)nc1Cn1c(C)cc2cc(C(O)(C(F)(F)F)C(F)(F)F)ccc21` [Cpd C, 1,1,1,3,3,3-Hexafluoro-2-{2-methyl-1-[5-methyl-2-(3-trifluoromethyl-phenyl)-oxazol-4-ylmethyl]-1H-indol-5-yl}-propan-2-ol, reference compound], in data set [1] (10 mg/Kg once daily oral gavage), the Albuminuria / proteinuria entry is “No significant differences”. For the same compound, in data set [1] (10 mg/Kg), the “TOTAL CHOL (blood)” value was 117.4 ± 66.8 mg/dL and the TRIGLYCERIDES (blood) amounted to 57.2 ± 6.3 mg/dL. Also, in the data set with ADR-injected Balb/c mice (10 mg/Kg), the ALT came to 213.0 ± 151.7 U/L, the HCT was found to be 44.8 ± 1.5%, the HEMOGLOBIN stood at 12.2 ± 1.0 g/dL and the WBC was 7.6 ± 4.4 ×10^∧3 cells/ul. Besides, the “liver toxicity and blood dyscrasias (serology)” value with ADR-injected Balb/c mice is “No apparent signs of such toxicities”. Also, the ALT in the data set on ADR-injected Balb/c mice (first ALT line (r15), 10 mg/Kg) stood at 299.5 ± 365.0 U/L. Moreover, in data set [2] (10 mg/Kg), the “TOTAL CHOL (blood)” value turned out to be 119.8 ± 19.9 mg/dL and the TRIGLYCERIDES (blood) was determined as 110 ± 53.5 mg/dL.

For the origin of these results see US20210275514A1, “COMPOUNDS FOR USE IN TREATING KIDNEY DISORDERS” (Hoffmann-La Roche Inc., priority 2018, published 2021).
